In the supplement of paper PMC12463676, “Small-molecule dissolution of stress granules by redox modulation benefits ALS models” (Nature Chemical Biology, 2025):

Key:
potassium arsenate = compound: O=[As]([O-])(O)O.[K+] [potassium arsenate]; test: thermal stability z-score vs DMSO; higher = more thermally stabilized by treatment; settings: HeLa; arsenate concentration 1 mM
Method: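 Cellular thermal proteome profiling in HeLa cells treated with 1 mM arsenate for 1 h (DMSO pretreatment), heated to ten temperatures (37-66.3 °C). Soluble protein was quantified by TMT mass spectrometry relative to DMSO controls; the thermal stability score was transformed to a z-score; mean of n = 3 experiments.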

lipoamide = compound: NC(=O)CCCCC1CCSS1 [lipoamide]; test: as above; settings: HeLa, lipoamide concentration 100 µM
Method: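 Cellular thermal proteome profiling in HeLa cells. Cells were treated with 100 µM lipoamide for 1 h, with or without 1 mM arsenate for a further 1 h, then heated to ten temperatures (37-66.3 °C), and soluble protein was quantified by TMT mass spectrometry relative to 0.1% DMSO controls. The thermal stability score (sum of log2 fold changes minus the abundance score) was transformed to a z-score; mean of n = 3 experiments.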

[1] = arsenate co-treatment: 1 mM arsenate 1 h
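Note: each temperature applied for 3 min, abundance score taken as mean log2 fold change at the two lowest temperatures, z-score obtained by mean subtraction and division by SD.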

UniProt Q9UEU0, sequence (Q9UEU0 whole entry): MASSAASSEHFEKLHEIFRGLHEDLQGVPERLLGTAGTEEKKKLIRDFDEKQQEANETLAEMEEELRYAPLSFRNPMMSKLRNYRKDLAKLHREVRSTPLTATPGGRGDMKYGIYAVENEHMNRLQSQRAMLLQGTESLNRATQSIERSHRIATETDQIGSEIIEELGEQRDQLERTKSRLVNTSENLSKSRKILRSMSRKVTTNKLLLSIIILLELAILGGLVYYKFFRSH
UniProt Q15906, sequence (Q15906 whole entry): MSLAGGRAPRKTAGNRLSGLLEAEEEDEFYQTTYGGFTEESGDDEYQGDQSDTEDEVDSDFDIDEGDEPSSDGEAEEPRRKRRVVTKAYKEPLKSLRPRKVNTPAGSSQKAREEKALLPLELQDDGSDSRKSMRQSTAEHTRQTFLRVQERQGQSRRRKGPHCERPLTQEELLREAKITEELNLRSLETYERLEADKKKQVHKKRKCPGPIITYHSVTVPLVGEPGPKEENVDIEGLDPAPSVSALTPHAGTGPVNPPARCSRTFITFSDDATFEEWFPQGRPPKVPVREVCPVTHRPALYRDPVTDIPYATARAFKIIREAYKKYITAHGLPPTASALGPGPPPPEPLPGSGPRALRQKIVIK
UniProt Q5VIR6, sequence (Q5VIR6 whole entry): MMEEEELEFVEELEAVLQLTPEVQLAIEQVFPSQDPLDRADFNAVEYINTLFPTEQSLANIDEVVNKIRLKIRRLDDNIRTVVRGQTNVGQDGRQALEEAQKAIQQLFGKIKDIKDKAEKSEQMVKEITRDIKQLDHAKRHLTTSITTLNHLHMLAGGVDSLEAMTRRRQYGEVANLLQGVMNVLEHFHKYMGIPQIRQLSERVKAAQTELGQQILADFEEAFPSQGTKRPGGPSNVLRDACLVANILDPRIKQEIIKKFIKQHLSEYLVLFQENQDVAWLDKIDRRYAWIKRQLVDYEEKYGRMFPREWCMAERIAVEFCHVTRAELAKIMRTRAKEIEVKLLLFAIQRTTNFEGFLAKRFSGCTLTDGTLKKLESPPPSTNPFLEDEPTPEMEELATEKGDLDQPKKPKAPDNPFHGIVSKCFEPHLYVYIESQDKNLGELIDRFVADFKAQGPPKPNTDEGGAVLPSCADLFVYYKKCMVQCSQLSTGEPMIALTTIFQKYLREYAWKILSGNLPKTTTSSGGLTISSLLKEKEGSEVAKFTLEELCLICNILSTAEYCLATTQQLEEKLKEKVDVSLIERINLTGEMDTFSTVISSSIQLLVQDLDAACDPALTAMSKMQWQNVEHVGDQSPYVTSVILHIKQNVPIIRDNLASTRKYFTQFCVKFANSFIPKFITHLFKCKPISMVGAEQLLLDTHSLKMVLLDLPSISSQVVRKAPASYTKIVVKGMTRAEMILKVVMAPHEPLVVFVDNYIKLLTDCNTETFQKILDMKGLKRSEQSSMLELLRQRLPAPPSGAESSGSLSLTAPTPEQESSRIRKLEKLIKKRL
UniProt Q96JG6, sequence (Q96JG6 whole entry): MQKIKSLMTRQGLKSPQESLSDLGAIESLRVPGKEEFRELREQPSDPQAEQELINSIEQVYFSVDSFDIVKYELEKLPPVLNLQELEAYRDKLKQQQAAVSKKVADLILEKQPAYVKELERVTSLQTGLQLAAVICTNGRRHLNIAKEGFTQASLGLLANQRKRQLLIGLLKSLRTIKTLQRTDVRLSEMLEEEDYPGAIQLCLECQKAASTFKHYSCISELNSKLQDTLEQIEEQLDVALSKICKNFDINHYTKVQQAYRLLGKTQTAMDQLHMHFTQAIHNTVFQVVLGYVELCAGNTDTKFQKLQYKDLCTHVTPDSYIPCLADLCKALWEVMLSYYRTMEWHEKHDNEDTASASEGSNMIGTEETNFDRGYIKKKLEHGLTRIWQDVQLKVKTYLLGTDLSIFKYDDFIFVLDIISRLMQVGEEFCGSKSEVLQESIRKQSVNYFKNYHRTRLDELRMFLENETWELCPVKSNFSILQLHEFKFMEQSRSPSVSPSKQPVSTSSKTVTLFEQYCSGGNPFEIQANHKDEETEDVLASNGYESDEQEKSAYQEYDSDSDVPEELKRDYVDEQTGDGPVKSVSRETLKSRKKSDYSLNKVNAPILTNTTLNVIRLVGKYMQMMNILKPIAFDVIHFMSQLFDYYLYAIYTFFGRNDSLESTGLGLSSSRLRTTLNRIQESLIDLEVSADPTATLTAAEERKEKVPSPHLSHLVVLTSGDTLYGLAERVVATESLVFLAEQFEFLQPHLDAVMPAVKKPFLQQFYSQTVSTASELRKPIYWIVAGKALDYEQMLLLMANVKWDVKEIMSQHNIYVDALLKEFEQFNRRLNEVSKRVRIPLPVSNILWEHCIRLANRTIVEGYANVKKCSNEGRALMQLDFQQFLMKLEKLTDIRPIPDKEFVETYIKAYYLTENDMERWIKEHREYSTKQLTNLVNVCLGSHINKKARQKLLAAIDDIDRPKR
UniProt Q99986, sequence (Q99986 whole entry): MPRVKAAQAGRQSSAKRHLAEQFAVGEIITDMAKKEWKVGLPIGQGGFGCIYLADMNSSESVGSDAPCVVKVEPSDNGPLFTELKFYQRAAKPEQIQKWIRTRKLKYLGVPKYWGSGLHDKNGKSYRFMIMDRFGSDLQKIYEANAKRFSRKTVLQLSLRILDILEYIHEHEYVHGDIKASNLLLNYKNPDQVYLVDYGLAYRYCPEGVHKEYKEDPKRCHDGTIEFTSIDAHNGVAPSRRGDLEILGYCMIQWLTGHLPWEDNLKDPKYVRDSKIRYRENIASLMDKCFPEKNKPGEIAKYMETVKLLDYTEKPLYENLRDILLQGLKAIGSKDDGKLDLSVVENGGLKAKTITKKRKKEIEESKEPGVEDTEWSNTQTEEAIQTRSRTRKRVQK
UniProt Q96I51, sequence (Q96I51 whole entry, looked up): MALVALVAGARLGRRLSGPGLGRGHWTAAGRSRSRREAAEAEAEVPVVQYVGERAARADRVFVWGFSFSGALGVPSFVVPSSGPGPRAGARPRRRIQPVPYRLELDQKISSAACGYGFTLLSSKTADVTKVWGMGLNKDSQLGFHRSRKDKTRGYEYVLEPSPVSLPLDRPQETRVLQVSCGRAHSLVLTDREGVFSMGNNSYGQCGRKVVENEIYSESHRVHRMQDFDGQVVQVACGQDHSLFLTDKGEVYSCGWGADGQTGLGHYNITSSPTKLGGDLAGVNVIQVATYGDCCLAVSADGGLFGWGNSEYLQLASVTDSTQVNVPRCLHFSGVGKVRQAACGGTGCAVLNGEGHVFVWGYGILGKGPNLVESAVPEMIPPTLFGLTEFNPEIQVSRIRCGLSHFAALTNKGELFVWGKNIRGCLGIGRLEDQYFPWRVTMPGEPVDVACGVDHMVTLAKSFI
UniProt Q7Z5K2, sequence (Q7Z5K2 whole entry): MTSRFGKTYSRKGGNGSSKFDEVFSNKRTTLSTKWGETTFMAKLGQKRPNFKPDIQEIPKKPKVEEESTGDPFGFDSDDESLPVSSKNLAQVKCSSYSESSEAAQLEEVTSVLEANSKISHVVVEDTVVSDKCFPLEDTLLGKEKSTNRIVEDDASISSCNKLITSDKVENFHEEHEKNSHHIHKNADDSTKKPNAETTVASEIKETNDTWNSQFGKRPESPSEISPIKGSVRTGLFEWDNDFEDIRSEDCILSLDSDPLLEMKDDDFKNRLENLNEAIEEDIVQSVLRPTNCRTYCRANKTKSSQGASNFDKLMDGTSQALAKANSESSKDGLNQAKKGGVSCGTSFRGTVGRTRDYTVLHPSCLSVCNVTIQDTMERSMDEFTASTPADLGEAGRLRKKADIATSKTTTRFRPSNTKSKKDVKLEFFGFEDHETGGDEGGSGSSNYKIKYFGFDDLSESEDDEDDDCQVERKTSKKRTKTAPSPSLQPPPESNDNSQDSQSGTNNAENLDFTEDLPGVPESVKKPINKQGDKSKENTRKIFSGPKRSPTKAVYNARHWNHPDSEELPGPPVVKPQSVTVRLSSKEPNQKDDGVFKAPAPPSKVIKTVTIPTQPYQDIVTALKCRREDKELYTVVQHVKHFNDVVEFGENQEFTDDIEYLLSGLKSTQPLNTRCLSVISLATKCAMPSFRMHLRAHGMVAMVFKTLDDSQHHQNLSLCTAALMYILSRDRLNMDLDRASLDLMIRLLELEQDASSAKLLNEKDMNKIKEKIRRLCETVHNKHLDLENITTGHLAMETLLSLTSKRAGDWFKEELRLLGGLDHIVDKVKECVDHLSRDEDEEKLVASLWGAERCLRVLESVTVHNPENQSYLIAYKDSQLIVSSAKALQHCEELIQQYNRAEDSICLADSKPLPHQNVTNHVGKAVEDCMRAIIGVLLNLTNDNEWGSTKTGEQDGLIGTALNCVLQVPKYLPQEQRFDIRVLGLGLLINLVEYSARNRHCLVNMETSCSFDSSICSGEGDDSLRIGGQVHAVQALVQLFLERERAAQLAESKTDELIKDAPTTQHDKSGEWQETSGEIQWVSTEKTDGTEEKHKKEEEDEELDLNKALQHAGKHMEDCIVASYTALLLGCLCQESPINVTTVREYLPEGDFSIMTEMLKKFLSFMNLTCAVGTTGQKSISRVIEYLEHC
UniProt Q9UGM6, sequence (Q9UGM6 whole entry): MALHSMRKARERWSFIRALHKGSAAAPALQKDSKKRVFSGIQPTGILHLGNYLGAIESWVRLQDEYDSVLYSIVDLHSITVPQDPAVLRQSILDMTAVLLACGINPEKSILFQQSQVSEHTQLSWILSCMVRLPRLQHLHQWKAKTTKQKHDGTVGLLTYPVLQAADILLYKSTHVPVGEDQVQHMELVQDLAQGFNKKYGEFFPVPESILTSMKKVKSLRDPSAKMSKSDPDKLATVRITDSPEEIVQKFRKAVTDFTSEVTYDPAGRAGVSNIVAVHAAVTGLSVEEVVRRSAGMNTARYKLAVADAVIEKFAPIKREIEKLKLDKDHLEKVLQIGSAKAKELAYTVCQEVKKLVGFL
UniProt Q96AJ9, sequence (Q96AJ9 whole entry): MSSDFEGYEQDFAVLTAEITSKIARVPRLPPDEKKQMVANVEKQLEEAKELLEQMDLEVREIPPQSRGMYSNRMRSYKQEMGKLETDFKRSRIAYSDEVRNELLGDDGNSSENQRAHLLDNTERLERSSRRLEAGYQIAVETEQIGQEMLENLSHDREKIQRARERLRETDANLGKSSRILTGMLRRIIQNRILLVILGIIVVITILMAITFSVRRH

| Target | thermal stability z-score (potassium arsenate) | thermal stability z-score (lipoamide; [1]) | thermal stability z-score (lipoamide; arsenate co-treatment: none) |
| --- | --- | --- | --- |
| VPS41 (UniProt P49754) | -0.161 | -0.0442 | -0.511 |
| VPS45 (UniProt Q9NRW7) | 0.0668 | 0.546 | 0.434 |
| VPS50 (UniProt Q96JG6) | 0.134 | -0.564 | -0.541 |
| VPS51 (UniProt Q9UID3) | -0.285 | -0.0785 | 0.169 |
| VPS52 (UniProt Q8N1B4) | -0.0774 | -0.424 | -0.105 |
| VPS53 (UniProt Q5VIR6) | -0.0122 | 0.332 | 0.126 |
| VPS72 (UniProt Q15906) | -2.49 | 1.96 | -0.00979 |
| VRK1 (UniProt Q99986) | -0.267 | 0.263 | 0.423 |
| VRK2 (UniProt Q86Y07) | -0.6 | -0.383 | -0.335 |
| VTA1 (UniProt Q9NP79) | -0.12 | 0.703 | 0.296 |
| VTI1A (UniProt Q96AJ9) | -0.0839 | 0.054 | 0.419 |
| VTI1B (UniProt Q9UEU0) | -0.184 | -0.0224 | -0.376 |
| VWA5A (UniProt O00534) | -0.235 | -0.245 | 0.147 |
| VWA8 (UniProt A3KMH1) | -0.561 | -0.654 | -0.345 |
| VWA9 (UniProt Q96SY0) | -0.114 | 0.159 | 0.404 |
| WAC (UniProt Q9BTA9) | 0.126 | 0.192 | 0.112 |
| WAPL (UniProt Q7Z5K2) | -0.434 | 0.0171 | 0.484 |
| WARS2 (UniProt Q9UGM6) | -0.284 | -0.731 | -0.143 |
| WARS (UniProt P23381) | 0.737 | 0.561 | 0.612 |
| WASF1 (UniProt Q92558) | -0.375 | -0.121 | -0.0242 |
| WASF2 (UniProt Q9Y6W5) | -0.206 | -0.14 | -0.155 |
| WASL (UniProt O00401) | -1.26 | -0.128 | 0.327 |
| WBP2 (UniProt Q969T9) | -0.0559 | 0.689 | 0.465 |
| WBP4 (UniProt O75554) | -2.19 | 1.32 | 0.617 |
| WBP11 (UniProt Q9Y2W2) | 0.254 | 0.102 | 0.283 |
| WBSCR16 (UniProt Q96I51) | 0.683 | 1.56 | 0.878 |
| WBSCR22 (UniProt O43709) | -0.902 | -0.223 | -0.46 |
| WDFY1 (UniProt Q8IWB7) | -1.85 | -0.112 | -0.423 |
